Data published in patent US20210247277A1, “Pretreatment Method for Fluorescent Image Diagnosis” (Goryo Chemical, Inc., priority 2018, published 2021).

Legend:
[1] = Fluorescence intensity of the probe and of its fluorescent product at each pH; type: physicochemical; conditions: dependence on pH
Description: (§1) Cells cultured on glass surface were reacted with gGlu-HMRG, and fluorescence intensity was compared. HeLa cells were inoculated at the same density to chambers of a 4-chamber glass bottom dish. The cells were cultured in DMEM+8% FBS, P.S. under conditions of 37° C. and 5% CO2 for approximately 8 hours. The cells were rinsed three times with PBS(−) adjusted to pH 6.5, 7.3, or 7.8, which was then replaced with each solution supplemented with 2 μM gGlu-HMRG. The cells were stained at 37° C. under 5% CO2 for 20 minutes and observed under a fluorescence microscope under the same conditions as above without the solution replaced. 100 ms exposure, gain 5 Int 5, ND1. Fluorescence intensity from 5 cells in fluorescence images, and background fluorescence intensity were measured with reference to superimposed images with DIC, and the mean and standard deviation were plotted. The fluorescence intensity of gGlu-HMRG and the fluorescence intensity of HMRG (fluorescent substance after reaction with GGT) were measured at each pH.

HeLa cells spheroid = assay: Time-dependent fluorescence intensity in HeLa cell spheroid (fluorescence microscope); type: cell-based, human; conditions: 1 μM; washed with HBSS and probe in HBSS, compared with PBS(−) 10 min and probe in PBS(−)
Description: Time-dependent changes in fluorescence intensity are shown for a HeLa cells spheroid which was washed with HBSS and then impregnated with a 1 μM solution of gGlu-HMRG dissolved in HBSS (upper), and for a HeLa cells spheroid which was impregnated with PBS(−) for 10 minutes and then impregnated with a 1 μM solution of gGlu-HMRG dissolved in PBS(−) (lower).
HeLa cells were inoculated at 10^5 cells/well and cultured for 4 to 6 days. The obtained spheroid was put on a glass bottom dish and cultured for about 3 hours. Then, the culture solution was removed, and the spheroid was impregnated with PBS(−) for 10 minutes. A control was washed with HBSS without being impregnated with PBS(−). A 1 μM solution of gGlu-HMRG dissolved in PBS(−) or HBSS was added to the spheroid impregnated with PBS(−) or the control spheroid. Each spheroid immediately (0 minutes), 10 minutes, 20 minutes, 30 minutes, and 60 minutes after addition of the gGlu-HMRG solution was photographed under a fluorescence microscope (Leica DMI 6000 CS, lens: 10×, filter Leica L5, excitation wavelength: 460 to 500 nm, fluorescence wavelength: 512 to 542 nm). Transmitted light images of the spheroid were taken 10 minutes after impregnated with PBS(−).

[2] = system: lymph nodes including sentinel lymph node (breast cancer metastasis); assay: Fluorescence increase in lymph node clinical specimens resected during breast cancer surgery; conditions: 50 μM in PBS
Description: After pretreatment of lymph node specimens resected during breast cancer surgery in PBS(−) for 0 minutes, 1 minute, 5 minutes, 10 minutes or an appropriate course of time, increases of fluorescence at 10 minutes after impregnation with a 50 μM gGlu-HMRG solution from that immediately after the impregnation are shown. A specimen diagnosed with cancer metastasis in pathological diagnosis is indicated by a filled circle, and a specimen confirmed to have no cancer metastasis is indicated by an open triangle.
Lymph nodes including sentinel lymph node excised for the purpose of pathological diagnosis during breast cancer surgery were divided and transported from the operating room to an inspection room in a state wrapped in gauze wetted with PBS. A reagent and PBS (140 mM NaCl, 2.7 mM KCl, 10 mM PO4^3−, pH=7.4) at room temperature were used. A PBS impregnated sample was impregnated with a container where PBS was placed, and continuously impregnated for 1 minute, 5 minutes, 10 minutes, or an appropriate course of time from 1 minute to 30 minutes. A PBS non-impregnated sample was stored in state wrapped in gauze wetted with PBS to prevent drying out, instead of being impregnated with PBS, and used in fluorescence measurement. The lymph nodes were carefully taken out with tweezers and put on a Petri dish, and visible images of autofluorescence were taken in a fluorescence measuring machine. 50 μM gGlu-HMRG dissolved in PBS was added to the Petri dish where the lymph nodes were placed, until the lymph nodes completely soaked therein. The fluorescence measurement was continued. The pathological diagnosis of the specimens used in this test was also conducted and checked against final results about whether cancer metastasized to each lymph node.
The fluorescence intensity was indicated by a ratio to the fluorescence intensity of a fluorescence intensity reference plate having a constant fluorescence intensity (measured fluorescence intensity/fluorescence intensity of the fluorescence intensity reference plate).

HeLa cells = assay: Influence of pH on fluorescence of HeLa cells cultured on glass surface; type: cell-based, human; conditions: 2 μM, 20 minutes, 37° C.
Description: as §1

A549 cell spheroid = assay: Quantification of probe reaction and penetration in A549 cell spheroid (fluorescence intensity by depth); type: cell-based, human
Description: (§2) FIG. 4 illustrates a method for analyzing the penetration or reaction of reagents into or with the spheroid. When “Depth” shown in FIGS. 5 to 10 was, for example, 200 μm, the fluorescence intensity of an open region in the illustration was determined from fluorescence intensity observed by fluorescence microscope, wherein the open region has the inside circle at 200 μm inside from the outer periphery and has the outside circle at 100 μm outside from the aforementioned inside circle as shown in the drawing.
(§3) HeLa cells (human uterine cervical cancer cell line) or A549 cells (human alveolar basal epithelial adenocarcinoma cell line) were inoculated at 1×10^4 cells to Nunclon Sphera and cultured for 7 to 14 days. Each obtained spheroid was allowed to adhere to a poly-L-lysine-coated glass bottom dish over approximately 24 hours. The medium was replaced with a buffer, and the spheroid was incubated at room temperature for 10 minutes (impregnation, rinse). The buffer in the dish was replaced with each buffer containing gGlu-HMRG dissolved to attain a final concentration of 0.1 μM (A549 cells) or 1 μM (HeLa cells), followed by observation under a fluorescence microscope (Leica DMI 6000 CS, lens: 10×, filter Leica L5, ex. 460 to 500 nm, em. 512 to 542 nm). An area (ROI) having the distance from surface shown in FIG. 4 was captured with ImageJ, and increase in the average luminance between the start of measurement and 5 minutes later was analyzed. Fluorescence was also observed by impregnating with saline and addition of gGlu-HMRG dissolved in PBS(−).
(§4) The buffers used and their composition are as follows.
(§5) PBS(−): 140 mM NaCl, 2.7 mM KCl, 10 mM PO4^3− (pH=7.4) PBS(+): PBS(−) described above as well as 0.90 mM CaCl2, 0.33 mM MgCl2 (pH=7.4) PBS−Ca: PBS(−) described above as well as 0.90 mM CaCl2 (pH=7.4) PBS−Mg: PBS(−) described above as well as 0.33 mM MgCl2 (pH=7.4) PBS−EDTA: PBS(−) described above as well as 0.2 mM EDTA (pH=7.4)
(§6) To evaluate the influence of divalent ion (calcium, etc.)-dependent adhesion, fluorescence was observed under the same conditions as in Example 3 except that the following buffers were used.
(§7) (1) No pretreatment (no rinse) and impregnation with a solution of gGlu-HMRG dissolved in PBS(−) (2) Pretreatment by Impregnating with PBS(−) (3) Pretreatment by Impregnating with PBS(+) (4) Pretreatment by impregnating with PBS(−)+0.2 mM EDTA
Fluorescence was measured by the same method as in Example 3 except that a 5 μM FeRhoNox-1 probe was used instead of gGlu-HMRG as the fluorescent probe. The cells used were only A549 cells.

HeLa cell spheroid = assay: Quantification of probe reaction and penetration in HeLa cell spheroid (fluorescence intensity by depth); type: cell-based, human
Description: as §2
as §3, with “The buffer in the dish was replaced with each buffer containing gGlu-HMRG dissolved to attain a final concentration of 0.1 μM (A549 cells) or 1 μM (HeLa cells), followed by observation under a fluorescence microscope (Leica DMI 6000 CS, lens: 10×, filter Leica L5, ex. 460 to 500 nm, em. 512 to 542 nm).” left out
as §4, §5, §6, §7

[3] = PBS(−) + 0.2 mM EDTA, compared with PBS(−)

Row | Fluorescence intensity at each pH [1] | Compound | Increase of fluorescence in the spheroid over 0-60 minutes (HeLa cells spheroid) | Increase in fluorescence intensity in the lymph nodes 10 minutes after the start of measurement ([2]; 5 specimens confirmed to have no cancer metastasis in pathological diagnosis) | Increase in fluorescence intensity in the lymph nodes 10 minutes after the start of measurement ([2]; some specimens confirmed to have cancer, without impregnation with PBS) | Increase in fluorescence intensity in the lymph nodes 10 minutes after the start of measurement ([2]; specimens confirmed to have cancer, impregnated with PBS (regardless of impregnating time)) | Fluorescence intensity of cells and background (HeLa cells; PBS(−) at lower pH (pH 6.5, 7.3, 7.8 tested)) | Fluorescence intensity of cells (HeLa cells; PBS(−) at pH of 7.3 or higher) | Increase rate of fluorescence, 5 minutes (A549 cell spheroid; PBS(+) impregnation) | Increase of fluorescence intensity by depth, 5 minutes (A549 cell spheroid; [3]) | Increase rate of fluorescence intensity, 5 minutes (A549 cell spheroid; PBS(−) impregnating treatment 10 min compared with PBS(+), 0.1 μM, 50 μM (FIG. 6 legend)) | Increase rate of fluorescence intensity, 5 minutes (A549 cell spheroid; PBS−Ca (PBS(−) + 0.90 mM CaCl2) 10 min, as in PBS(+)) | Increase rate of fluorescence intensity, 5 minutes (A549 cell spheroid; PBS−Mg (PBS(−) + 0.33 mM MgCl2) 10 min) | Increase of fluorescence intensity, 5 minutes (A549 cell spheroid; saline (154 mM NaCl) 10 min) | Increase of fluorescence by distance from surface, 5 minutes (HeLa cell spheroid; [3]) | Increase of fluorescence by distance from surface, 5 minutes (HeLa cell spheroid; PBS(−) impregnation 10 minutes, probe in PBS(−), compared with HBSS without wash) | Increase of fluorescence by distance from surface, 5 minutes (HeLa cell spheroid; PBS(−) impregnation compared with no impregnation or PBS(+)) | Increase of fluorescence by distance from surface, 5 minutes (HeLa cell spheroid; probe in HBSS, no buffer wash, 1 μM, 50 μM (FIG. 5 legend)) | Fluorescence intensity distribution by pretreatment solution, 5 minutes (A549 cell spheroid; 5 μM probe, PBS−, PBS+, PBS+Ca or PBS+EDTA 10 min)
1 | decreased with the elevation of pH | Nc1ccc2c(c1)Oc1cc(N)ccc1C21OCc2ccccc21 [HMRG] | – | – | – | – | – | – | – | – | – | – | – | – | – | – | – | – | –
2 | decreased with the elevation of pH | Nc1ccc2c(c1)Oc1cc(NC(=O)CC[C@H](N)C(=O)O)ccc1C21OCc2ccccc21 (stereo partly shown) [gGlu-HMRG] | slower increase of fluorescence in the central portion of the spheroid | little fluorescence increase | only weak fluorescence | strong fluorescence | lower pH decreased a signal and increased a background | increased signal intensity | almost equivalent to that of no impregnation | larger increase of fluorescence intensity at a site deeper from surface | accelerated the increase rate of fluorescence intensity | less increased fluorescence | Substantially the same results as those of PBS(−) | increase of fluorescence intensity was slow | further accelerated the increase of fluorescence | increase of fluorescence was mora rapid | accelerated the increase of fluorescence at a location distant from surface | increase of fluorescence was slowed with the increasing distance from surface | –
3 | – | FeRhoNox-1 | – | – | – | – | – | – | – | – | – | – | – | – | – | – | – | – | same tendency as that obtained using gGlu-HMRG
